Series [1] in a line: Cryogenic grinding of crystalline perfluorinated polymers on the Spex mill, MeOH extraction and LC/MS determination of perfluorinated carboxylic acids. Type of series: physicochemical. As to conditions: 10 wt.-% BHT versus no radical scavenger. From the text: (§1) The general procedures described in "3M Standard Method for PFAS in Articles of Commerce, Edition 1, 02 June 2020", including the test and analytical equipment, was followed. The disclosure of this document is incorporated herein by reference in its entirety. In particular, reference is made with regard to the experimental and analytical setup and methods used in the present disclosure to the chapter "Part 3: Instrumental Analysis", 3.1.1 "Analytical Equipment and Materials" as well as 3.1.2 "HPLC Conditions (exemplary)".
(§2) The submitted samples were dissolved in methanol prior to analysis. Standard solutions were prepared from an aqueous solution of Adona that was determined to have a concentration of 28.36% by NMR.
In this study the inhibition effect of radical scavengers on the generation of perfluorinated carboxylic acids during cryogenic grinding of crystalline fluoropolymers was investigated. The polymers were grinded on a Spex or Retsch mill under the addition of BHT (2,6-Di-tert-butyl-4-methylphenol; CAS 128-37-0). The BHT was added as a powder to the polymer in the milling tube. Table 3. Milling conditions.
Perfluorinated carboxylic acids were extracted with MeOH and determined by LC/MS measurements as published in the 3M Standard test method for the determination of PFOA in articles of commerce. […]

Series [2] can be described thus: Cryogenic grinding of perfluorinated elastomers (Spex mill), MeOH extraction and LC/MS determination of perfluorinated carboxylic acids. Type of series: physicochemical. The conditions noted are these: 10 wt.-% BHT versus no radical scavenger.
Description: as §1, §2
In this study the inhibition effect of radical scavengers on the generation of perfluorinated carboxylic acids during cryogenic grinding of PFE and PFE compounds was investigated. As example 1, PTFE 191 plus 10 wt.-% BHT as radical scavenger was used. The amount of BHT was added as a powder to the gum in the milling container. Comparative Example 1 was PTFE 191 without BHT or any other radical scavengers. […]
The perfluorinated carboxylic acids were determined by extraction of the grinded material with MeOH and subsequent LC/MS measurements. […]

As to `Cc1cc(C(C)(C)C)c(O)c(C(C)(C)C)c1` [BHT, 2,6-Di-tert-butyl-4-methylphenol], the “formation of C3-C7 Perfluorocarboxylic acids is reduced by a factor of” value in series [1] came to 18. Moreover, the “lowers the PFOA formation” value in series [2] is given as “within three orders of magnitude”.

Source of the values: patent EP4019580A1, “REDUCTION OF FLUORINATED ACID IN FLUOROPOLYMERS” (3M Innovative Properties Company, priority 2020, dated 2022).
